Reference: patent US20080038809A1, “ISOLATED LECTIN POLYPEPTIDES CONSISTING OF TRUNCATED […] UDP-GalNAc:POLYPEPTIDE N- ACETYLGALACTOSAMINYLTRANSFERASES” (GLYCOZYM APS, priority 2002, published 2008)
“Also recorded” adds a separate entry of the source.

Legend:
[1] = test system: MUC1 secreted by wild type CHO/MUC1sol-cloneC4; assay: Secreted MUC1 in medium, western blot; format: cell-based, Chinese Hamster; conditions: 1-2 mM, compared to control treated or non-treated cells
Description: Because GalNAcα-benzyl exerts separate effects on O-glycan processing and mucin expression, the use of the novel selective inhibitor of mucin expression, GalNAcβ-benzyl, allow analysis of mucin expression and secretion in different cell line models. Examples of human cell lines (available from ATCC, USA) expressing and secreting mucins are without limitations LS174T, HT29, Colo205, CALU, MCF7, T47D, NCI-H292, and A549. Most human adenocarcinoma cell lines express and secret mucins and analysis with antibodies to detect protein expression or probes to detect mRNA can reveal the types and quantities of mucins. […] This and other cell lines can be used to treat with 2 mM GalNAcβ-benzyl. In this Example we used wild type CHO/MUC1sol-cloneC4 and western blot analysis of medium of cells treated with 1-2 mM GalNAcα-benzyl, GalNAcβ-benzyl, or the control GlcNAcα-benzyl. […] The inhibitory effect on mucin secretion can be quantified by a number of assays known to the skilled in the art including western blot, ELISA, gelfiltration, immunocapture, and other assays.

[2] = test system: intracellular MUC5AC, HT29MTX cells; assay: Intracellular MUC5AC by immunofluorescence staining of HT29MTX cells; format: cell-based, human; conditions: 5 mM, CLH2 antibody
Description: FIG. 18 illustrates immuno-fluorescence staining of HT29MTX cells treated with inhibitors as indicated and stained with the anti-MUC5AC monoclonal antibody, CLH2.
In order to evaluate GalNAcβ-benzyl as an inhibitor of mucin glycosylation and secretion we used the cultured colon carcinoma cells of mucin secreting phenotypes: HT-29 metotrexate (MTX) cells selected from the HT-29 cell line by culture in the presence of MTX (kind gift from G. Huet, France). The HT-29 MTX cells were selected to yield a goblet cell like phenotype with constitutive production of MUC5AC. In order to ensure proper goblet cell differentiation the HT29MTX cell line were continuously grown up to 21 days in the presence of 5 mM GalNAcα-benzyl, 5 mM GalNAcβ-benzyl, 5 mM GlcNAcα-benzyl and without inhibitor using culture conditions as described in Hennebicq-Reig et al. (Permanent exposure of mucin-secreting HT-29 cells to benzyl-N-acetyl-alpha-D-galactosaminide induces abnormal O-glycosylation of mucins and inhibits constitutive and stimulated MUC5AC secretion. Biochem J. 1998; 334:283-95). […] Furthermore the viscosity of the media from cells with and without inhibitor was evaluated using viscosity micro-measurement.

[3] = test system: MUC1 in CHO1d1D/MUC1F-clone2 cells; assay: MUC1 expression in cell lysates, immunoprecipitation and SDS-PAGE western blot (FIGS. 12-15); format: cell-based, Chinese Hamster; conditions: 2 mM; for SDS-PAGE migration of MUC1 (O-glycosylation): cells grown in Gal and GalNAc
Procedure: FIG. 12 is an SDS-PAGE Western analysis of GalNAcα-benzyl inhibition of MUC1 expression in CHO 1d1D cells stably transfected with a full coding MUC1 construct. […] Cells were further treated with 2 mM GalNAcα-benzyl (lanes 1, 4, 7, 10), 2 mM GlcNAcα-benzyl (lanes 2, 5, 8, 11) or no inhibitor (lanes 3, 6, 9, 12). Cells were washed and lysed at 24 or 48 hours and the lysates subjected to immunoprecipitation with monoclonal antibody HMFG2, which broadly recognize MUC1 glycoforms. Immunoprecipitates were analysed by SDS-PAGE and western blot using HMFG2 antibody to detect MUC1 expression. Lane M indicates molecular markers with assigned mw. Lane C includes a control MUC1 180-mer tandem repeat peptide which has been GalNAc-glycosylated with 3 moles GalNAc per repeat using GalNAc-T2. The sharp bands migrating at 100-200 kd are immunoglobulins indicated by IgG.
Cells were further treated with 2 mM GalNAcα-benzyl (lanes 1, 4, 7, 10), 2 mM GalNAcβ-benzyl (lanes 2, 5, 8, 11) or 2 mM GlcNAcα-benzyl (lanes 3, 6, 9, 12). Cells were washed and lysed at 36 hours and the lysates subjected to immunoprecipitation with monoclonal antibodies HMFG2 (lanes 1-6) or 5E5 (lanes 7-12). Immunoprecipitates were analysed by SDS-PAGE and western blot using HMFG2 antibody. Lanes M and C as described in legend to FIG. 7.
We next analysed the expression of MUC1 produced by CHO1d1D/MUC1F-clone2 cells by SDS-PAGE western analysis. […] Cells were further treated with 2 mM GalNAcα-benzyl, GlcNAcα-benzyl or no inhibitor. Cells were washed and lysed at 24 or 48 hours and the lysates subjected to immunoprecipitation with monoclonal antibody HMFG2, which broadly recognize MUC1 glycoforms. Immunoprecipitates were analysed by SDS-PAGE and western blot using HMFG2 antibody to detect MUC1 expression. […] In striking contrast, treatment with GalNAcα-benzyl had significant effect after 48 hours. […] This indicates some heterogeneity in glycosylation.
As shown in Examples 2 and 3, polypeptide GalNAc-transferases contain lectin domains with binding properties for GalNAc-peptides including GalNAc-MUC1 peptides. […] GalNAcβ-benzyl, the β-anomeric configuration of GalNAc-benzyl (there is a β linkage between the N-acetylgalactosamine and the benzyl ring), was custom synthesized by Alberta Research Council (Canada), and its structure was confirmed by mass spectrometry and ^1H-NMR. […] Cells were then treated with 2 mM GalNAcα-benzyl, GalNAcβ-benzyl, or GlcNAcα-benzyl as control (GlcNAcα-benzyl was shown in Example 4 to have no effect). Cells were washed and lysed as described above after 36 hours and the lysates subjected to immunoprecipitation with anti-MUC1 monoclonal antibodies HMFG2 or 5E5. […] FIG. 15 illustrates the same experiment as in FIG. 14 except that the detection antibody is 5E5 and only Tn and STn MUC1 glycoforms are visualised.

Compound | secreted MUC1 in medium [1] | intracellular staining of MUC5AC / storage phenotype [2] | MUC1 expression ([3]; 36 hours, 5E5 blot (FIG. 15)) | MUC1 expression ([3]; 36 hours, HMFG2 blot (FIG. 14)) | SDS-PAGE migration of MUC1 (O-glycosylation) ([3]; 36 hours) | MUC1 expression ([3]; 24 hours, HMFG2 blot) | MUC1 expression ([3]; 48 hours, HMFG2 blot, cells grown in GalNAc or Gal and GalNAc) | SDS-PAGE migration of MUC1 (O-glycosylation) ([3]; 48 hours, listed as GalNAcα-benzyl)
CC(=O)N[C@H]1[C@H](OCc2ccccc2)O[C@H](CO)[C@H](O)[C@@H]1O [GalNAcβ-benzyl] | inhibition | did not lead to a storage disease phenotype; also recorded: clearly diminished intracellular staining of MUC5AC | strong inhibition; also recorded: same or better reduction | significant reduction; also recorded: same or better reduction | does not interfere with O-glycosylation; also recorded: no change in the migration |  |  | 
CC(=O)N[C@H]1[C@@H](OCc2ccccc2)O[C@H](CO)[C@H](O)[C@@H]1O [BzlαGalNAc, benzyl-N-acetyl-alpha-D-galactosaminide] | inhibition |  | strong inhibition | significant reduction |  | no significant effect | significant reduction | significant shift in migration; also recorded: marked shift in migration
CC(=O)N[C@H]1[C@@H](OCc2ccccc2)O[C@H](CO)[C@H](O)[C@@H]1O [GalNAcα-benzyl, benzyl-N-acetyl-alpha-D-galactosaminide] |  | storage phenotype with increased intracellular staining of MUC5AC |  |  |  |  |  | 
